Assay results: patent US9006450B2 (Boehringer Ingelheim International GmbH, priority 2010, dated 2015)

These molecules were tested against T1, human ACC2 (Homo sapiens, UniProt O00763) (assay: ACC2 assay, spectrophotometric 384 well assay (NADH-linked, coupled lactate dehydrogenase/pyruvate kinase)). Conditions: ACC2 assay, hACC2 construct lacking 128 N-terminal amino acids, 25° C., 340 nm; read-out: IC50.
T1 construct: made in house; host or cells: insect cells (baculoviral expression system)
Format: biochemical
Method: Spectrophotometric 384 Well Assay
Malonyl CoA formation by acetyl CoA carboxylases is stoichometrically linked to the consumption of ATP. ACC2 activity is measured in a NADH-linked kinetic method measuring ADP generated during the ACC reaction using a coupled lactate dehydrogenase/pyruvate kinase reaction.
For biological testing, a human ACC2 construct which lacks the 128 amino acids at the N-terminus for increased solubility (nt 385-6966 in Genbank entry AJ575592) is cloned. The protein is then expressed in insect cells using a baculoviral expression system. Protein purification is performed by anion exchange.
All compounds are dissolved in dimethyl sulfoxide (DMSO) to a concentration of 10 mM.
Assay reactions are then carried out in 384-well plates, with hACC2 in an appropriate dilution and at final assay concentrations (f.c.) of 100 mM Tris (pH 7.5), 10 mM trisodium citrate, 25 mM KHCO3, 10 mM MgCl2, 0.5 mg/mL BSA, 3.75 mM reduced L-glutathione, 15 U/mL lactate dehydrogenase, 0.5 mM phosphoenolpyruvate, 15 U/mL pyruvate kinase, compounds at different concentrations at final DMSO concentrations of 1%.
The enzymatic reaction is then started by addition of a mixture of NADH, acetyl Coenzyme A (both 200 μM f.c.) and ATP (500 uM f.c.). The decrease of the optical density (slope S) is then determined at 25° C. at a wavelength of 340 nm over 15 minutes in a spectrophotometric reader.
Each assay microtiter plate contains wells with vehicle instead of compound as controls for the non-inhibited enzyme (100% CTL; ‘HIGH’) and wells without acetyl-CoA as controls for non-specific NADH degradation (0% CTL; ‘LOW’).
The slope S is used for calculation of % CTL=(S(compound)−S('LOW'))/(S('HIGH')−S('LOW'))*100. Compounds will give values between 100% CTL (no inhibition) and 0% CTL (complete inhibition).
For IC50 value determination, the sample slope in the presence of the test compound after subtraction of the low controls (S(compound)−S('LOW')) are used.
An IC50 value is derived from the compound slopes at different dosages after subtraction of the low controls (S(compound)−S('LOW')) by non-linear regression curve fitting (equation y=(A+((B−A)/(1+((C/x)^D))))).

T1 sequence (O00763 129-2458 limits assumed): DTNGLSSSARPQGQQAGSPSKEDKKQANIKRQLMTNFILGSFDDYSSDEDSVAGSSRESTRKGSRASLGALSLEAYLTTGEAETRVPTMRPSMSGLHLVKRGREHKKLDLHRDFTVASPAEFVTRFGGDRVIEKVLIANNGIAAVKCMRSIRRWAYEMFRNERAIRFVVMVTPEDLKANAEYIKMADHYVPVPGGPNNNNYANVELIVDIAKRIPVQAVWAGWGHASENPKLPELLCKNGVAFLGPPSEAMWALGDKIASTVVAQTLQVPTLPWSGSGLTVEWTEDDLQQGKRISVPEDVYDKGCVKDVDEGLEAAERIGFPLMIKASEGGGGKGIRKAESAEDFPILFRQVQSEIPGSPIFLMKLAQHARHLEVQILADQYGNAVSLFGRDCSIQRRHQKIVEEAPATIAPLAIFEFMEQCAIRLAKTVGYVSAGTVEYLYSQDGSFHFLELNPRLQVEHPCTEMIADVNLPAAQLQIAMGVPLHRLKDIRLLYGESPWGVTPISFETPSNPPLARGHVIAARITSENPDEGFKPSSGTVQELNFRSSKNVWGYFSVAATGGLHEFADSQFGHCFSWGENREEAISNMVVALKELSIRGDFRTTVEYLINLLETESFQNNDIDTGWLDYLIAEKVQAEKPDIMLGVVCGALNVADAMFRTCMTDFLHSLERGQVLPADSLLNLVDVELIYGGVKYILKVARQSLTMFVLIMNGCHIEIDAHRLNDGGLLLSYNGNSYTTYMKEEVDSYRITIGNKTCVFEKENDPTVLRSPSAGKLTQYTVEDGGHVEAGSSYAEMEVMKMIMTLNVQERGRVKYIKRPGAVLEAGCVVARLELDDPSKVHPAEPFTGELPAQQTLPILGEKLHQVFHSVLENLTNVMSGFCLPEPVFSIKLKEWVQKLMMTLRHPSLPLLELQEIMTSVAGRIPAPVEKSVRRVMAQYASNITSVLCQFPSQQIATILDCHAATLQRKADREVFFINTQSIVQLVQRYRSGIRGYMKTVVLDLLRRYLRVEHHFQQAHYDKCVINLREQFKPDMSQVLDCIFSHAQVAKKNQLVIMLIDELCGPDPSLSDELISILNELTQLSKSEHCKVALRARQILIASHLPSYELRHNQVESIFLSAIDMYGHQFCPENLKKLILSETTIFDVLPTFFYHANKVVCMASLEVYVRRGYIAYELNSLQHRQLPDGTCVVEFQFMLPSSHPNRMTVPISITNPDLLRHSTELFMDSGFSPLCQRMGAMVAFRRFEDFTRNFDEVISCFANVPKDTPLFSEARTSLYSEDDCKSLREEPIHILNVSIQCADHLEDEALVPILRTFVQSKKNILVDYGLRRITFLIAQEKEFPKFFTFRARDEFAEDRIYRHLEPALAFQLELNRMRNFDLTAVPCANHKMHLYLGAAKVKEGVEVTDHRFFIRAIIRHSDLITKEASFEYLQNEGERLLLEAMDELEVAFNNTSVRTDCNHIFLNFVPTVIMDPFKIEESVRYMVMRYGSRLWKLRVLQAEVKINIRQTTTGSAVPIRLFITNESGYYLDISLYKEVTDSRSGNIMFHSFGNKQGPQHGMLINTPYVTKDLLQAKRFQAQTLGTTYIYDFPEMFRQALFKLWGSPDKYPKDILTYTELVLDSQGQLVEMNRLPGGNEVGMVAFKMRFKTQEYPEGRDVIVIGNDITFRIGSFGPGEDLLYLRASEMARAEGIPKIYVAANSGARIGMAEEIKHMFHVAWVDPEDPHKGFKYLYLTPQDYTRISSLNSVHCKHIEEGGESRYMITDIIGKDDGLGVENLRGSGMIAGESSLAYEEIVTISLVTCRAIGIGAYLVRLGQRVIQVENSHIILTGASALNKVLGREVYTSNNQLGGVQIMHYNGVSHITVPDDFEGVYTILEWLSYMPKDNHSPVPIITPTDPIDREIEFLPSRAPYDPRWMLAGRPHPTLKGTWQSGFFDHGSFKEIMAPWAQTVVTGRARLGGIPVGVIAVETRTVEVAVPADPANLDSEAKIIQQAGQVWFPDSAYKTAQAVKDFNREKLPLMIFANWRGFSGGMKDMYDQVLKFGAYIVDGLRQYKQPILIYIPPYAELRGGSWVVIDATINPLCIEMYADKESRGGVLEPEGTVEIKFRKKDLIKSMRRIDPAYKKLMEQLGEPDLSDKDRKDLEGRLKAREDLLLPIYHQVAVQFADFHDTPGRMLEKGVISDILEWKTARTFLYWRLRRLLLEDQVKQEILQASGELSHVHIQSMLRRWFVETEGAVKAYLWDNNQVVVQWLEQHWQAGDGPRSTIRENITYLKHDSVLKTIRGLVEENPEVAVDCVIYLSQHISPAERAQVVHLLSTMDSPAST

Point of comparison: `CCCOc1ccc(N2CCC(c3ccc([C@H](C)NC(=O)C4CC4)cc3)CC2)c(C#N)c1` [Example 1.115], IC50 110 nM. Against it:
- CC(=O)N[C@@H](C)c1ccc(C2CCN(c3ccc4c(c3)ncn4C)CC2)cc1 [Example 1.72] — 220-fold higher, 23700 nM
- CC(=O)N[C@@H](C)c1ccc(C2CCN(c3cc4c(cc3C#N)OCO4)CC2)cc1 [Example 1.73] — 31-fold higher, 3400 nM
- CC(=O)N[C@@H](C)c1ccc(C2CCN(c3ccc(OC(C)C)cc3F)CC2)cc1 [Example 1.74] — within 1.5-fold, 100 nM
- CC(=O)N[C@@H](C)c1ccc(C2CCN(c3ccc4[nH]cc(C)c4c3)CC2)cc1 [Example 1.75] — 20-fold higher, 2200 nM
- CC(=O)N[C@@H](C)c1ccc(C2CCN(c3ccc4[nH]c(C)cc4c3)CC2)cc1 [Example 1.76] — 17-fold higher, 1900 nM
- C[C@H](NC(=O)C1CC1)c1ccc(C2CCN(c3cccc(OCC4CC4)c3)CC2)cc1 [Example 1.77] — 8.2-fold higher, 900 nM
- CC(C)Oc1cccc(N2CCC(c3ccc([C@H](C)NC(=O)C4CC4)cc3)CC2)c1 [Example 1.78] — 31-fold higher, 3400 nM
- C[C@H](NC(=O)C1CC1)c1ccc(C2CCN(c3ccc(OCC4CC4)cc3F)CC2)cc1 [Example 1.79] — 1.6-fold higher, 180 nM
- C[C@H](NC(=O)N(C)C)c1ccc(C2CCN(c3cccc(OCC4CC4)c3)CC2)cc1 [Example 1.80] — 4.8-fold higher, 530 nM
- CC(C)Oc1cccc(N2CCC(c3ccc([C@H](C)NC(=O)N(C)C)cc3)CC2)c1 [Example 1.81] — 2.5-fold higher, 280 nM
- CCOc1ccc(N2CCC(c3ccc([C@H](C)NC(=O)C4CC4)cc3)CC2)c(F)c1 [Example 1.82] — within 1.5-fold, 160 nM
- CCCOc1ccc(N2CCC(c3ccc([C@H](C)NC(=O)C4CC4)cc3)CC2)c(F)c1 [Example 1.83] — within 1.5-fold, 100 nM
- C[C@H](NC(=O)N(C)C)c1ccc(C2CCN(c3ccc(OCC4CC4)cc3F)CC2)cc1 [Example 1.84] — 1.6-fold higher, 180 nM
- CCOc1ccc(N2CCC(c3ccc([C@H](C)NC(=O)N(C)C)cc3)CC2)c(F)c1 [Example 1.85] — within 1.5-fold, 140 nM
- CCCOc1ccc(N2CCC(c3ccc([C@H](C)NC(=O)N(C)C)cc3)CC2)c(F)c1 [Example 1.86] — 1.9-fold higher, 210 nM
- C[C@H](NC(=O)C1CC1)c1ccc(C2CCN(c3ccc4c(c3)OCC(C)(C)CO4)CC2)cc1 [Example 1.87] — 11-fold higher, 1200 nM
- CC(=O)N[C@@H](C)c1ccc(C2CCN(c3cccc(OC4CCC4)c3)CC2)cc1 [Example 1.88] — 4.9-fold higher, 540 nM
- CCCOc1cccc(N2CCC(c3ccc([C@H](C)NC(C)=O)cc3)CC2)c1 [Example 1.89] — 3.5-fold higher, 390 nM
- CCC(C)Oc1cccc(N2CCC(c3ccc([C@H](C)NC(C)=O)cc3)CC2)c1 (some centres unmarked) [Example 1.90] — 2.1-fold higher, 230 nM
- Cc1cc(OC2CC2)ccc1N1CCC(c2ccc([C@H](C)NC(=O)C3CC3)cc2)CC1 [Example 1.91] — 5.5-fold higher, 600 nM
- CC(=O)N[C@@H](C)c1ccc(C2CCN(c3ccc(OC4CC4)cc3C)CC2)cc1 [Example 1.92] — within 1.5-fold, 120 nM
- COc1cc(OC2CC2)ccc1N1CCC(c2ccc([C@H](C)NC(=O)C3CC3)cc2)CC1 [Example 1.93] — 5.3-fold higher, 580 nM
- CC(=O)N[C@@H](C)c1ccc(C2CCN(c3ccc(OC4CC4)cc3OC3CC3)CC2)cc1 [Example 1.94] — 1.9-fold higher, 210 nM
- COc1ccc(N2CCC(c3ccc([C@H](C)NC(C)=O)cc3)CC2)c(F)c1 [Example 1.96] — 3.3-fold higher, 360 nM
- COCCOc1ccc(N2CCC(c3ccc([C@H](C)NC(C)=O)cc3)CC2)c(F)c1 [Example 1.97] — 4.8-fold higher, 530 nM
- CC(=O)N[C@@H](C)c1ccc(C2CCN(c3cccc4c3OCCO4)CC2)cc1 [Example 1.98] — 4.3-fold higher, 470 nM
- COCCCOc1ccc(N2CCC(c3ccc([C@H](C)NC(C)=O)cc3)CC2)c(F)c1 [Example 1.99] — 3-fold higher, 330 nM
- CCOc1cnc(N2CCC(c3ccc([C@H](C)NC(C)=O)cc3)CC2)c(F)c1 [Example 1.100] — 4.7-fold higher, 520 nM
- CC(=O)N[C@@H](C)c1ccc(C2CCN(c3ccc(OCCC4CC4)cc3F)CC2)cc1 [Example 1.101] — 2.2-fold lower, 50 nM
- CC(=O)N[C@@H](C)c1ccc(C2CCN(c3ncc(OCC4CC4)cc3F)CC2)cc1 [Example 1.104] — 1.8-fold higher, 200 nM
- CCCOc1cnc(N2CCC(c3ccc([C@H](C)NC(C)=O)cc3)CC2)c(F)c1 [Example 1.105] — 2.2-fold higher, 240 nM
- COc1cc(OC2CC2)ccc1N1CCC(c2ccc([C@H](C)NC(=O)N(C)C)cc2)CC1 [Example 1.106] — 1.5-fold higher, 170 nM
- C[C@H](NC(=O)N(C)C)c1ccc(C2CCN(c3ccnc(Oc4cncnc4)c3)CC2)cc1 [Example 1.107] — 4.7-fold higher, 520 nM
- C[C@H](NC(=O)C1CC1)c1ccc(C2CCN(c3ccnc(Oc4cncnc4)c3)CC2)cc1 [Example 1.108] — 8.5-fold higher, 930 nM
- CC(=O)N[C@@H](C)c1ccc(C2CCN(c3ccc(OCCn4ccnc4)cc3)CC2)cc1 [Example 1.109] — 28-fold higher, 3100 nM
- CC(=O)N[C@@H](C)c1ccc(C2CCN(c3ccc(Oc4cncnc4)nc3)CC2)cc1 [Example 1.110] — 41-fold higher, 4500 nM
- C[C@H](NC(=O)N(C)C)c1ccc(C2CCN(c3ccc(OC4CC4)cc3)CC2)cc1 [Example 1.112] — 1.9-fold higher, 210 nM
- COC(=O)N[C@@H](C)c1ccc(C2CCN(c3ccc(OC4CC4)cc3)CC2)cc1 [Example 1.113] — within 1.5-fold, 140 nM
- CC(C)COc1ccc(N2CCC(c3ccc([C@H](C)NC(=O)C4CC4)cc3)CC2)cc1 [Example 1.114] — within 1.5-fold, 130 nM
- CCCOc1ccc(N2CCC(c3ccc([C@H](C)NC(=O)C4CC4)cc3)CC2)c(OC)c1 [Example 1.116] — 7-fold higher, 770 nM
- C[C@H](NC(=O)C1CC1)c1ccc(C2CCN(c3ccc(OC4CCCC4)cc3)CC2)cc1 [Example 1.117] — 1.8-fold lower, 60 nM
- CC(C)COc1ccc(N2CCC(c3ccc([C@H](C)NC(=O)C4CC4)cc3)CC2)nc1 [Example 1.118] — within 1.5-fold, 120 nM
- CC(C)Oc1ccc(N2CCC(c3ccc([C@H](C)NC(=O)C4CC4)cc3)CC2)cc1 [Example 1.119] — 2.4-fold higher, 260 nM
- CC(C)Oc1cc(N2CCC(c3ccc([C@H](C)NC(=O)C4CC4)cc3)CC2)ccn1 [Example 1.120] — 2.3-fold higher, 250 nM
- CCOc1ccc(N2CCC(c3ccc([C@H](C)NC(=O)C4CC4)cc3)CC2)c(OCC)c1 [Example 1.121] — 74-fold higher, 8100 nM
- CC(C)COc1ccc(N2CCC(c3ccc([C@H](C)NC(=O)N(C)C)cc3)CC2)cc1 [Example 1.122] — within 1.5-fold, 120 nM
- CCCOc1ccc(N2CCC(c3ccc([C@H](C)NC(=O)N(C)C)cc3)CC2)c(C#N)c1 [Example 1.123] — 1.6-fold lower, 70 nM
- CCCOc1ccc(N2CCC(c3ccc([C@H](C)NC(=O)N(C)C)cc3)CC2)c(OC)c1 [Example 1.124] — 1.6-fold higher, 180 nM
- C[C@H](NC(=O)N(C)C)c1ccc(C2CCN(c3ccc(OC4CCCC4)cc3)CC2)cc1 [Example 1.125] — within 1.5-fold, 100 nM
- CC(C)COc1ccc(N2CCC(c3ccc([C@H](C)NC(=O)N(C)C)cc3)CC2)nc1 [Example 1.126] — 2.1-fold higher, 230 nM
- CC(C)Oc1ccc(N2CCC(c3ccc([C@H](C)NC(=O)N(C)C)cc3)CC2)cc1 [Example 1.127] — 3-fold higher, 330 nM
- CC(C)Oc1cc(N2CCC(c3ccc([C@H](C)NC(=O)N(C)C)cc3)CC2)ccn1 [Example 1.128] — within 1.5-fold, 120 nM
- CCOc1ccc(N2CCC(c3ccc([C@H](C)NC(=O)N(C)C)cc3)CC2)c(OCC)c1 [Example 1.129] — 32-fold higher, 3500 nM
- CCC(C)Oc1ccc(N2CCC(c3ccc([C@H](C)NC(=O)OC)cc3)CC2)cc1 (some centres unmarked) [Example 1.130] — within 1.5-fold, 80 nM
- CCCOc1ccc(N2CCC(c3ccc([C@H](C)NC(=O)OC)cc3)CC2)c(C#N)c1 [Example 1.131] — 1.7-fold higher, 190 nM
- CCCOc1ccc(N2CCC(c3ccc([C@H](C)NC(=O)OC)cc3)CC2)c(OC)c1 [Example 1.132] — 7.6-fold higher, 840 nM
- COC(=O)N[C@@H](C)c1ccc(C2CCN(c3ccc(OC4CCCC4)cc3)CC2)cc1 [Example 1.133] — within 1.5-fold, 130 nM
- COC(=O)N[C@@H](C)c1ccc(C2CCN(c3ccc(OCC(C)C)cn3)CC2)cc1 [Example 1.134] — 2.5-fold higher, 280 nM
- COC(=O)N[C@@H](C)c1ccc(C2CCN(c3ccc(OC(C)C)cc3)CC2)cc1 [Example 1.135] — 3.1-fold higher, 340 nM
- COC(=O)N[C@@H](C)c1ccc(C2CCN(c3ccnc(OC(C)C)c3)CC2)cc1 [Example 1.136] — 4.5-fold higher, 500 nM
- CCOc1ccc(N2CCC(c3ccc([C@H](C)NC(=O)OC)cc3)CC2)c(OCC)c1 [Example 1.137] — 150-fold higher, 16000 nM
- C[C@H](NC(=O)N(C)C)c1ccc(C2CCN(c3ccnc(Oc4ccccc4)c3)CC2)cc1 [Example 1.138] — within 1.5-fold, 160 nM
- C[C@H](NC(=O)C1CC1)c1ccc(C2CCN(c3ccc(OCC4CC4(F)F)cc3)CC2)cc1 (some centres unmarked) [Example 1.139] — 1.6-fold lower, 70 nM
- C[C@H](NC(=O)N(C)C)c1ccc(C2CCN(c3ccc(OCC4CC4(F)F)cc3)CC2)cc1 (some centres unmarked) [Example 1.140] — within 1.5-fold, 90 nM
